ChEMBL document CHEMBL3885881, “DrugMatrix”

Species: Rattus norvegicus
Assay: DrugMatrix - Regimen: Daily Repeat
Format: toxicity, organism-based, Sprague-Dawley
Parameters: regimen Daily Repeat, gender Male, age 6-8 weeks
Conditions: in vivo, sc, route subcutaneous, […]; for ABSOLUTE BASOPHIL / ABSOLUTE EOSINOPHIL / ABSOLUTE LYMPHOCYTE / ABSOLUTE MONOCYTE / ABSOLUTE SEGMENTED NEUTROPHIL / BASOPHIL / EOSINOPHIL / ERYTHROCYTE COUNT / HEMATOCRIT / HEMOGLOBIN / LEUKOCYTE COUNT / LYMPHOCYTE / MEAN CORPUSCULAR HEMOGLOBIN / MEAN CORPUSCULAR HEMOGLOBIN CONCENTRATION / MONOCYTE / NUCLEATED RED BLOOD CELLS / PLATELET COUNT: tissue Blood; for ALANINE AMINOTRANSFERASE / ALBUMIN / ALKALINE PHOSPHATASE / ASPARTATE AMINOTRANSFERASE / BLOOD UREA NITROGEN / CARBON DIOXIDE / CHLORIDE / CHOLESTEROL / CREATINE PHOSPHOKINASE / CREATININE / GLUCOSE / LACTATE DEHYDROGENASE / PHOSPHORUS / POTASSIUM / SODIUM / TOTAL BILIRUBIN / TOTAL PROTEIN / URIC ACID: tissue Plasma
[1] = 130 mg/kg, 72 h, dose level High, time 3 day
[2] = 130 mg/kg, 120 h, dose level High, time 5 day
[3] = 72 h, dose 2.4 mg/Kg, dose level Low, time 3 day
[4] = 120 h, dose 2.4 mg/Kg, dose level Low, time 5 day

In the case of `CC(C)(C)NCC(O)c1cc(O)cc(O)c1` (stereo not given) [TERBUTALINE], the “ABSOLUTE BASOPHIL” value [1] is reported as 0 CELLS/uL, the “ABSOLUTE EOSINOPHIL” value [1] is reported as 167.67 CELLS/uL and the “ABSOLUTE LYMPHOCYTE” value [1] is reported as 11900.33 CELLS/uL. For the same compound, the “ABSOLUTE MONOCYTE” value [1] was 398.67 CELLS/uL, the “ABSOLUTE SEGMENTED NEUTROPHIL” value [1] was 1166.67 CELLS/uL and the BASOPHIL [1] was 0%. The EOSINOPHIL [1] was 1.33%, the “ERYTHROCYTE COUNT” value [1] was 5.52 x10E6/uL and the HEMATOCRIT [1] was 35.5%. The HEMOGLOBIN [1] was 13.33 G/DL, the “LEUKOCYTE COUNT” value [1] was 13.63 x10E3/uL and the LYMPHOCYTE [1] was 87%. For the same compound, the “MEAN CORPUSCULAR HEMOGLOBIN” value [1] was 24.2 pg, the “MEAN CORPUSCULAR HEMOGLOBIN CONCENTRATION” value [1] was 37.57 G/DL and the MONOCYTE [1] was 3%. The “NUCLEATED RED BLOOD CELLS” value [1] was 0 /100WBC, the “PLATELET COUNT” value [1] was 1383.67 x10E3/uL and the “ALANINE AMINOTRANSFERASE” value [1] was 49 u/L. For the same compound, the ALBUMIN [1] was 4.03 G/DL, the “ALKALINE PHOSPHATASE” value [1] was 361 u/L and the “ASPARTATE AMINOTRANSFERASE” value [1] was 73.33 u/L. The “BLOOD UREA NITROGEN” value [1] was 18.33 mg/dL, the “CARBON DIOXIDE” value [1] was 25.67 mmol/L and the CHLORIDE [1] was 104 MEQ/L. The CHOLESTEROL [1] was 72.33 mg/dL, the “CREATINE PHOSPHOKINASE” value [1] was 253.67 u/L and the CREATININE [1] was 0.23 mg/dL. The GLUCOSE [1] was 146 mg/dL, the “LACTATE DEHYDROGENASE” value [1] was 407 u/L and the PHOSPHORUS [1] was 12.8 mg/dL. For the same compound, the POTASSIUM [1] was 6.42 MEQ/L, the SODIUM [1] was 145.5 MEQ/L and the “TOTAL BILIRUBIN” value [1] was 0.2 mg/dL. For the same compound, the “TOTAL PROTEIN” value [1] was 5.97 G/DL, the “URIC ACID” value [1] was 1.3 mg/dL and the “ABSOLUTE BASOPHIL” value [2] was 0 CELLS/uL. The “ABSOLUTE EOSINOPHIL” value [2] was 53.33 CELLS/uL, the “ABSOLUTE LYMPHOCYTE” value [2] was 12240 CELLS/uL and the “ABSOLUTE MONOCYTE” value [2] was 406 CELLS/uL. For the same compound, the “ABSOLUTE SEGMENTED NEUTROPHIL” value [2] was 2467.33 CELLS/uL, the BASOPHIL [2] was 0% and the EOSINOPHIL [2] was 0.33%. For the same compound, the “ERYTHROCYTE COUNT” value [2] was 6.08 x10E6/uL, the HEMATOCRIT [2] was 37.43% and the HEMOGLOBIN [2] was 14.03 G/DL. For the same compound, the “LEUKOCYTE COUNT” value [2] was 15.17 x10E3/uL, the LYMPHOCYTE [2] was 80.67% and the “MEAN CORPUSCULAR HEMOGLOBIN” value [2] was 23.13 pg. For the same compound, the “MEAN CORPUSCULAR HEMOGLOBIN CONCENTRATION” value [2] was 37.47 G/DL, the MONOCYTE [2] was 2.67% and the “NUCLEATED RED BLOOD CELLS” value [2] was 0.33 /100WBC. The “PLATELET COUNT” value [2] was 1346 x10E3/uL, the “ALANINE AMINOTRANSFERASE” value [2] was 52.67 u/L and the ALBUMIN [2] was 4.13 G/DL. For the same compound, the “ALKALINE PHOSPHATASE” value [2] was 293.33 u/L, the “ASPARTATE AMINOTRANSFERASE” value [2] was 84.67 u/L and the “BLOOD UREA NITROGEN” value [2] was 17.33 mg/dL. For the same compound, the “CARBON DIOXIDE” value [2] was 28.33 mmol/L, the CHLORIDE [2] was 101.33 MEQ/L and the CHOLESTEROL [2] was 69 mg/dL. For the same compound, the “CREATINE PHOSPHOKINASE” value [2] was 289.33 u/L, the CREATININE [2] was 0.22 mg/dL and the GLUCOSE [2] was 150.67 mg/dL. For the same compound, the “LACTATE DEHYDROGENASE” value [2] was 492.33 u/L, the PHOSPHORUS [2] was 14.6 mg/dL and the POTASSIUM [2] was 6.32 MEQ/L. The SODIUM [2] was 146.93 MEQ/L, the “TOTAL BILIRUBIN” value [2] was 0.2 mg/dL and the “TOTAL PROTEIN” value [2] was 6.13 G/DL. The “URIC ACID” value [2] was 1.93 mg/dL, the “ABSOLUTE BASOPHIL” value [3] was 0 CELLS/uL and the “ABSOLUTE EOSINOPHIL” value [3] was 181 CELLS/uL. The “ABSOLUTE LYMPHOCYTE” value [3] was 16357.33 CELLS/uL, the “ABSOLUTE MONOCYTE” value [3] was 366 CELLS/uL and the “ABSOLUTE SEGMENTED NEUTROPHIL” value [3] was 1395.67 CELLS/uL. For the same compound, the BASOPHIL [3] was 0%, the EOSINOPHIL [3] was 1% and the “ERYTHROCYTE COUNT” value [3] was 5.97 x10E6/uL. For the same compound, the HEMATOCRIT [3] was 37.73%, the HEMOGLOBIN [3] was 13.8 G/DL and the “LEUKOCYTE COUNT” value [3] was 18.3 x10E3/uL. The LYMPHOCYTE [3] was 89.33%, the “MEAN CORPUSCULAR HEMOGLOBIN” value [3] was 23.13 pg and the “MEAN CORPUSCULAR HEMOGLOBIN CONCENTRATION” value [3] was 36.6 G/DL. The MONOCYTE [3] was 2%, the “NUCLEATED RED BLOOD CELLS” value [3] was 0 /100WBC and the “PLATELET COUNT” value [3] was 1334.67 x10E3/uL. For the same compound, the “ALANINE AMINOTRANSFERASE” value [3] was 41.67 u/L, the ALBUMIN [3] was 4.2 G/DL and the “ALKALINE PHOSPHATASE” value [3] was 286.67 u/L. The “ASPARTATE AMINOTRANSFERASE” value [3] was 75 u/L, the “BLOOD UREA NITROGEN” value [3] was 17 mg/dL and the “CARBON DIOXIDE” value [3] was 24.33 mmol/L. For the same compound, the CHLORIDE [3] was 105.67 MEQ/L, the CHOLESTEROL [3] was 72.67 mg/dL and the “CREATINE PHOSPHOKINASE” value [3] was 235.33 u/L. For the same compound, the CREATININE [3] was 0.23 mg/dL, the GLUCOSE [3] was 155.67 mg/dL and the “LACTATE DEHYDROGENASE” value [3] was 382 u/L. The PHOSPHORUS [3] was 13.4 mg/dL, the POTASSIUM [3] was 6.76 MEQ/L and the SODIUM [3] was 149.43 MEQ/L. The “TOTAL BILIRUBIN” value [3] was 0.2 mg/dL, the “TOTAL PROTEIN” value [3] was 6.23 G/DL and the “URIC ACID” value [3] was 1.77 mg/dL. For the same compound, the “ABSOLUTE BASOPHIL” value [4] was 0 CELLS/uL, the “ABSOLUTE EOSINOPHIL” value [4] was 0 CELLS/uL and the “ABSOLUTE LYMPHOCYTE” value [4] was 13803 CELLS/uL. The “ABSOLUTE MONOCYTE” value [4] was 207 CELLS/uL, the “ABSOLUTE SEGMENTED NEUTROPHIL” value [4] was 2023.33 CELLS/uL and the BASOPHIL [4] was 0%. For the same compound, the EOSINOPHIL [4] was 0%, the “ERYTHROCYTE COUNT” value [4] was 5.8 x10E6/uL and the HEMATOCRIT [4] was 36.37%. For the same compound, the HEMOGLOBIN [4] was 13.53 G/DL, the “LEUKOCYTE COUNT” value [4] was 16.03 x10E3/uL and the LYMPHOCYTE [4] was 86%. The “MEAN CORPUSCULAR HEMOGLOBIN” value [4] was 23.33 pg, the “MEAN CORPUSCULAR HEMOGLOBIN CONCENTRATION” value [4] was 37.23 G/DL and the MONOCYTE [4] was 1.33%. For the same compound, the “NUCLEATED RED BLOOD CELLS” value [4] was 0 /100WBC, the “PLATELET COUNT” value [4] was 1437.33 x10E3/uL and the “ALANINE AMINOTRANSFERASE” value [4] was 49.33 u/L. The ALBUMIN [4] was 4.13 G/DL, the “ALKALINE PHOSPHATASE” value [4] was 415 u/L and the “ASPARTATE AMINOTRANSFERASE” value [4] was 76 u/L. For the same compound, the “BLOOD UREA NITROGEN” value [4] was 20.33 mg/dL, the “CARBON DIOXIDE” value [4] was 27.67 mmol/L and the CHLORIDE [4] was 105 MEQ/L. The CHOLESTEROL [4] was 63 mg/dL, the “CREATINE PHOSPHOKINASE” value [4] was 180 u/L and the CREATININE [4] was 0.22 mg/dL. For the same compound, the GLUCOSE [4] was 154 mg/dL, the “LACTATE DEHYDROGENASE” value [4] was 224.33 u/L and the PHOSPHORUS [4] was 13.03 mg/dL. The POTASSIUM [4] was 6.39 MEQ/L, the SODIUM [4] was 146.27 MEQ/L and the “TOTAL BILIRUBIN” value [4] was 0.17 mg/dL. The “TOTAL PROTEIN” value [4] was 5.87 G/DL and the “URIC ACID” value [4] was 1.57 mg/dL.
